For data set [1], the target named is Histone deacetylase 1 (Homo sapiens, UniProt Q13547). The data set is described as follows: Inhibition of HDAC1.
The target of data set [2] is T1, Protein deacetylase HDAC6 (Homo sapiens, UniProt Q9UBN7).
T1 sequence (Q9UBN7 whole entry): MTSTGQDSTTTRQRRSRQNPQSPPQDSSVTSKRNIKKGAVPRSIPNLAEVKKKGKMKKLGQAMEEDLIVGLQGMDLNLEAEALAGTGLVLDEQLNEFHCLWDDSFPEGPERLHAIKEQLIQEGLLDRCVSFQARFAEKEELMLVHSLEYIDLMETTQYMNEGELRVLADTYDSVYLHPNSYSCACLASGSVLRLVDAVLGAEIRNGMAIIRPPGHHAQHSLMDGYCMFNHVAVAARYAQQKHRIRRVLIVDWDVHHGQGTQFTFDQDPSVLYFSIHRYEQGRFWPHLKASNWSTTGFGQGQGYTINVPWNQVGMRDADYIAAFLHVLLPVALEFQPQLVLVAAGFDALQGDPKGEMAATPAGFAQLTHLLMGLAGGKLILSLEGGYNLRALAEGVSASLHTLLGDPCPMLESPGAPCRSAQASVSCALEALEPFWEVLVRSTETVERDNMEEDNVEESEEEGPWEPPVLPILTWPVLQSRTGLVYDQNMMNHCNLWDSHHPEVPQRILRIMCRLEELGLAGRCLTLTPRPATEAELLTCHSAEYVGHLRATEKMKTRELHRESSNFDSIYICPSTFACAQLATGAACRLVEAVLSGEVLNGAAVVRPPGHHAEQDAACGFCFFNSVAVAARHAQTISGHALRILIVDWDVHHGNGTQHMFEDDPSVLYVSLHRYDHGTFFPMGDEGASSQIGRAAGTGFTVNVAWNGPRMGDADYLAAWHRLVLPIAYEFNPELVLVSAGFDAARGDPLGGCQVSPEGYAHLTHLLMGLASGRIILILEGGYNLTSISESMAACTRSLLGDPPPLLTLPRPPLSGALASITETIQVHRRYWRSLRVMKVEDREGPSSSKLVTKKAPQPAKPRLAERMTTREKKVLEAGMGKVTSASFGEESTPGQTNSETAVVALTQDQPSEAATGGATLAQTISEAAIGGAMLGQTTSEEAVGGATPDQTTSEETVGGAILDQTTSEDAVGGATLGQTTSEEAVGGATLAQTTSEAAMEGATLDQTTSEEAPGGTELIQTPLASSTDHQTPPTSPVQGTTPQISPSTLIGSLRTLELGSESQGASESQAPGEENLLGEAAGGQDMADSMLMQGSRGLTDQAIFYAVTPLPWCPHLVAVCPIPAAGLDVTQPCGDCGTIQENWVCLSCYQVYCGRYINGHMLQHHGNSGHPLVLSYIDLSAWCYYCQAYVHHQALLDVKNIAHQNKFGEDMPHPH
Briefly: Inhibition of HDAC6.

The target of data set [3] is Histone deacetylase 3 (Homo sapiens, UniProt O15379). Briefly: Inhibition of HDAC3.
Histone deacetylase 3, sequence (O15379 whole entry, the tested form may be a part): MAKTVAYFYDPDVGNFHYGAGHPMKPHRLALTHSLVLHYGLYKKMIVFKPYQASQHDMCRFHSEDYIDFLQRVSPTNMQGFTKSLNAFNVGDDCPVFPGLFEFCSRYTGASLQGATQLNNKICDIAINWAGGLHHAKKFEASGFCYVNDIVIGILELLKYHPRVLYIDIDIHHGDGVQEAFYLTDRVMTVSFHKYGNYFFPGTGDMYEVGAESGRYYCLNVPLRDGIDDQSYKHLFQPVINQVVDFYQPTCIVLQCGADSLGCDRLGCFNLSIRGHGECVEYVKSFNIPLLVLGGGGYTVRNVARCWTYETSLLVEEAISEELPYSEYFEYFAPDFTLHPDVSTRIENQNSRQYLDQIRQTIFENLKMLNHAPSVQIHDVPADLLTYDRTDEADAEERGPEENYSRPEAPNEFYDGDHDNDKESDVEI
Data set [4] has as its target Histone deacetylase 4 (Homo sapiens, UniProt P56524). The data set is described as follows: Inhibition of His-tagged HDAC4 catalytic domain expressed in Escherichia coli.
Data set [5] is described as follows: Metabolic stability in human HCT116 cells assessed as half life at 5 uM in presence of 10% FBS. The format is ADME, cell-based, HCT-116.
A short description of data set [6]: Metabolic stability in S9 fraction of human HCT116 cells assessed as half life in presence of NADPH and regenerating system. The data set is classed as ADME, cell-based, HCT-116.
Data set [7] can be described thus: Selectivity for His-tagged HDAC4 catalytic domain over HDAC1.
Data set [8] deals with T1, Protein deacetylase HDAC6. The data set is described as follows: Inhibition of HDAC6 in human HCT116 cells assessed as inhibition of alpha-tubulin deacetylation. The format is cell-based, HCT-116.

29 molecules from ChEMBL document CHEMBL1152136, “2-Trifluoroacetylthiophene oxadiazoles as potent and selective class II human histone deacetylase inhibitors” (Bioorg Med Chem Lett, 2008) can be followed below.

Histone deacetylase 4, sequence (P56524 whole entry, the tested form may be a part): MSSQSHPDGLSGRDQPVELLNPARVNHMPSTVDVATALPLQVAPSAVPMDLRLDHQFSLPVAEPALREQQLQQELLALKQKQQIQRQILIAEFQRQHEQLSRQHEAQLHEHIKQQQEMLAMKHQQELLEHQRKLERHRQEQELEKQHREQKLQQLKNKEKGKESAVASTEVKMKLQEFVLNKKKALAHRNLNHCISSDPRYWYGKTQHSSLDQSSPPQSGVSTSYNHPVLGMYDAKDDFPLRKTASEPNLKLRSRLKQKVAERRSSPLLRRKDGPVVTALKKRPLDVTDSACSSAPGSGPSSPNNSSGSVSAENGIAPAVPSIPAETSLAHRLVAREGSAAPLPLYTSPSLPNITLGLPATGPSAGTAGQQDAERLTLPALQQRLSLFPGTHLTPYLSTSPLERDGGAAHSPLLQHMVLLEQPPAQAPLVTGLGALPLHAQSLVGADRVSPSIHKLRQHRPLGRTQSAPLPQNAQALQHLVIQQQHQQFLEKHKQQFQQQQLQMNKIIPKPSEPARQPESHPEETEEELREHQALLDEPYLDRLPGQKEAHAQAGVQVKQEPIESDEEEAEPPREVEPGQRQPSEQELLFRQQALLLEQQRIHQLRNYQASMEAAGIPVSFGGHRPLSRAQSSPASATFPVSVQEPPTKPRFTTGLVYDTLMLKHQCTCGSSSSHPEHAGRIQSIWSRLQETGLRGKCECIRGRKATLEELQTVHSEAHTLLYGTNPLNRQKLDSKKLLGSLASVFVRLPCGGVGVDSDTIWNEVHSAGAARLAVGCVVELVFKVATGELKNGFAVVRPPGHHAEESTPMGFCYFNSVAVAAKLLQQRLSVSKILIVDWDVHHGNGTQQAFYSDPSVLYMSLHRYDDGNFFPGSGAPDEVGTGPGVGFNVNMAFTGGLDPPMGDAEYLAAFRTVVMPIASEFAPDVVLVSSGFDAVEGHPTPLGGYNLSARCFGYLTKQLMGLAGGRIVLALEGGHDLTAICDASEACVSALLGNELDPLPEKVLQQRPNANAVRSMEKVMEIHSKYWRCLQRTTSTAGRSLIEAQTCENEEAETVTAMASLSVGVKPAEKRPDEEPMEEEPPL
Histone deacetylase 1, sequence (Q13547 whole entry): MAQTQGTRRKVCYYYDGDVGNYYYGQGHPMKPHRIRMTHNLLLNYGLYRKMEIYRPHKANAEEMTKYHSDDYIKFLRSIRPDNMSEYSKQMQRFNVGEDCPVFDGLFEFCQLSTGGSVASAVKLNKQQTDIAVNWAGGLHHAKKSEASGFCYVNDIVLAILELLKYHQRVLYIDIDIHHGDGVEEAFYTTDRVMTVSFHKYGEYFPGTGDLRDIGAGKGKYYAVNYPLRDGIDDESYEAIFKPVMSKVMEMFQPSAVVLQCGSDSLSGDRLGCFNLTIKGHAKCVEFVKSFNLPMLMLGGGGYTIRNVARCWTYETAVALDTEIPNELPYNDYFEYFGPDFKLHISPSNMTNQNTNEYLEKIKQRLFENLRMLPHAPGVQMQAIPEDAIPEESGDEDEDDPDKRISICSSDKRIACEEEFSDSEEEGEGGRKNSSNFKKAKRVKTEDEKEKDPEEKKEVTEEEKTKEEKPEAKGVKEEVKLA

Consider `O=C(c1ccc(-c2nc(-c3ccccc3)no2)s1)C(F)(F)F`, for which the IC50 in data set [1] is 7400 nM; in data set [2] it was 580 nM; in data set [3] it was over 1000 nM; in data set [4] it was 110 nM.
For the molecule `Cc1ccc(-c2noc(-c3ccc(C(=O)C(F)(F)F)s3)n2)cc1`, the values for the IC50 in data set [1], in data set [2] and in data set [4] were 6800 nM, 860 nM and 110 nM, respectively.
Take `O=C(c1ccc(-c2nc(CS(=O)(=O)Cc3ccc(F)cc3)no2)s1)C(F)(F)F`: the half-inhibitory concentration (IC50) in data set [1] is 6550 nM; in data set [2], 700 nM; in data set [3], over 1000 nM; in data set [4] it was 60 nM. Also, the half-life at 5 µM in data set [5] is 330 min. Moreover, the half-life in data set [6] was determined as 35 min.
Regarding `O=C(c1ccc(-c2nc(-c3cccnc3)no2)s1)C(F)(F)F`, the IC50 in data set [1] worked out at 2200 nM; in data set [2], 840 nM; in data set [4] it was 70 nM.
In data set [3], `CCNC(=O)c1ccc(C(=O)C(F)(F)F)s1` registered a half-inhibitory concentration (IC50) of over 10000 nM.
For `O=C(c1ccc(-c2nc(CS(=O)(=O)c3cccs3)no2)s1)C(F)(F)F`, in data set [7], the Ratio IC50 is over 100. Further, the concentration for half-maximal inhibition (IC50) is 3890 nM in data set [1], 520 nM in data set [2], over 1000 nM in data set [3] and 35 nM in data set [4]. For the same molecule, the half-life at 5 µM in data set [5] is 360 min. Further, the half-life in data set [6] is 44 min.
Turning to `O=C(c1ccc(-c2nc(-c3ccccn3)no2)s1)C(F)(F)F`, the IC50 in data set [1] worked out at 2800 nM; in data set [2], 500 nM; in data set [4], 90 nM.
Regarding `CCCS(=O)(=O)Cc1noc(-c2ccc(C(=O)C(F)(F)F)s2)n1`, the Ratio IC50 in data set [7] was over 70. Besides, the IC50 in data set [1] is 2220 nM; in data set [8], 500 nM; in data set [2], 240 nM; in data set [3], over 1000 nM; in data set [4], 30 nM. Moreover, in data set [5], the half-life at 5 µM was 720 min. Also, the half-life in data set [6] is 45 min.
As to `O=C(c1ccc(-c2nc(-c3cccc(C(F)(F)F)c3)no2)s1)C(F)(F)F`, the IC50 in data set [1] was 17500 nM; in data set [2], 2450 nM; in data set [3] it was over 1000 nM; in data set [4], 320 nM.
In the case of `CN(Cc1ccccc1)C(=O)c1ccc(C(=O)C(F)(F)F)s1`, the half-life in data set [6] amounted to 15 min.
As to `O=C(c1ccc(-c2nc(-c3ccc(C(F)(F)F)cc3)no2)s1)C(F)(F)F`, the IC50 in data set [1] is over 10000 nM; in data set [2] it was 11000 nM; in data set [4], 200 nM.
Take `O=C(Cc1noc(-c2ccc(C(=O)C(F)(F)F)s2)n1)N1CCCC1`: in data set [7], the Ratio IC50 was over 75. Also, the figures for the half-inhibitory concentration (IC50) in data set [1], in data set [2] and in data set [4] were 5900 nM, 710 nM and 60 nM, respectively.
With `O=C(c1ccc(-c2nc(Cc3cccs3)no2)s1)C(F)(F)F`, in data set [7], the Ratio IC50 is 70. Moreover, the IC50 amounted to 990 nM in data set [1], 170 nM in data set [2], 630 nM in data set [3] and 15 nM in data set [4]. Moreover, the half-life in data set [6] was found to be 35 min.
As for `CC(C)(C)c1ccc(-c2noc(-c3ccc(C(=O)C(F)(F)F)s3)n2)cc1`, the IC50 in data set [1] is 16600 nM; in data set [2], 3540 nM; in data set [3], over 1000 nM; in data set [4] it was over 2000 nM.
`O=C(c1ccc(-c2nc(-c3cccs3)no2)s1)C(F)(F)F`: the results for the IC50 in data set [1], in data set [2] and in data set [4] were 2900 nM, 670 nM and 95 nM, respectively.
For `O=C(c1ccc(-c2nc(-c3ccncc3)no2)s1)C(F)(F)F`, in that order: over 10000 nM, 570 nM and 590 nM.
Take `O=C(c1ccc(-c2nc(COc3ccc(-c4nnco4)cc3)no2)s1)C(F)(F)F`: in data set [1], the IC50 came to 4800 nM. For the same molecule, the half-life in data set [6] turned out to be 18 min.
As to `CS(=O)(=O)Cc1noc(-c2ccc(C(=O)C(F)(F)F)s2)n1`, the Ratio IC50 in data set [7] is over 70. In addition, the IC50 is 2470 nM in data set [1]; 640 nM in data set [8]; 320 nM in data set [2]; over 1000 nM in data set [3]; 30 nM in data set [4]. In addition, the half-life at 5 µM in data set [5] is 780 min. The half-life in data set [6] was over 120 min.
Consider `O=C(c1ccc(-c2nc(-c3ccc(Cl)cc3Cl)no2)s1)C(F)(F)F`, for which the half-maximal inhibitory concentration (IC50) in data set [1] was over 5000 nM; in data set [2], 3000 nM; in data set [4] it was 240 nM.
As to `Cc1noc(-c2ccc(C(=O)C(F)(F)F)s2)n1`, the IC50 in data set [1] was 7600 nM; in data set [2], 650 nM; in data set [3] it was 7100 nM; in data set [4], 75 nM. Further, the half-life in data set [6] is over 120 min.
As for `O=C(c1ccc(-c2nc(-c3ccc(F)cc3)no2)s1)C(F)(F)F`, the IC50 in data set [1] is 5900 nM; in data set [2], 270 nM; in data set [3], over 1000 nM; in data set [4] it was 220 nM.
For `O=C(c1ccc(-c2ncc(-c3ccccc3)s2)s1)C(F)(F)F`, the half-inhibitory concentration (IC50) in data set [1] was over 10000 nM; in data set [2], 1350 nM; in data set [4], 1500 nM.
On to `O=C(NCc1ccccc1)c1ccc(C(=O)C(F)(F)F)s1`, for which the IC50 in data set [1] stood at 467 nM; in data set [2] it was 370 nM; in data set [3], 520 nM; in data set [4], 243 nM.
Turning to `Cc1ccc(-c2nnc(-c3ccc(C(=O)C(F)(F)F)s3)o2)cc1`, the IC50 in data set [1] is 1800 nM; in data set [2] it was 600 nM; in data set [3], over 1000 nM; in data set [4], 270 nM.
On to `O=C1COc2ccccc2N1Cc1noc(-c2ccc(C(=O)C(F)(F)F)s2)n1`, for which the Ratio IC50 in data set [7] was over 75. Further, the half-inhibitory concentration (IC50) in data set [1] is 1170 nM; in data set [2], 410 nM; in data set [3], over 1000 nM; in data set [4] it was 15 nM. The half-life in data set [6] stood at 25 min.
In the case of `O=C(c1ccc(-c2nc(-c3ccc(F)cc3F)no2)s1)C(F)(F)F`, the concentration for half-maximal inhibition (IC50) in data set [1] is 4200 nM; in data set [2], 580 nM; in data set [3], over 1000 nM; in data set [4] it was 120 nM. Also, in data set [6], the half-life is over 120 min.
In the case of `O=C(c1ccc(-c2nnc(-c3cccs3)o2)s1)C(F)(F)F`, the IC50 amounted to 2600 nM in data set [1], 160 nM in data set [2], 500 nM in data set [3] and 450 nM in data set [4].
For `Cc1cccc(-c2noc(-c3ccc(C(=O)C(F)(F)F)s3)n2)c1`, in that order: 6540 nM, 680 nM, over 1000 nM and 280 nM.
Consider `O=C(c1ccc(-c2nnc(-c3ccccc3)o2)s1)C(F)(F)F`, for which the IC50 in data set [1] turned out to be 2970 nM; in data set [2], 330 nM; in data set [3], 500 nM; in data set [4], 420 nM.

The term IC50 denotes the concentration that inhibits the measured activity by half. The term half-life denotes how long it takes for the measured level to halve.
